≈ marks a conversion by molar mass, not a printed value.
Tests used:
[1] = system: M. tuberculosis H37Rv expressing the green fluorescent protein (H37Rv-GFP); assay: microbe, parasite or virus in culture; format: cell-based; conditions: for MIC50: Mycobacterium tuberculosis, H37RV, 120 h, read-out: QUM (MIC50)
[2] = system: Raw 264.7 cells infected with H37Rv-GFP; assay: microbe, parasite or virus in culture; format: cell-based, M. tuberculosis; conditions: for MIC50: Mycobacterium tuberculosis, H37RV, 120 h, read-out: QIM (MIC50)

SMILES | MIC50 [1] | MIC50 [2] | melting point | QUM (MIC50, uM) [1] | QIM (MIC50, uM) [2]
Cn1cc2ccc(NC(=O)c3cc4sc(N5CCOCC5)nc4s3)cc2n1 [Compound 132] | > 20 µM | < 1 µM | 313.7 °C | – | –
COc1ccc(NC(=O)c2cc3sc(N4CCCCC4)nc3s2)cc1 [Compound 35] | < 1 µM | < 1 µM | 235 °C | – | –
O=C(Nc1ccc(-c2cc3n(n2)CCO3)cc1)c1cc2sc(N3CCOCC3)nc2s1 [Compound 164] | > 20 µM | > 20 µM | 361.2 °C | – | –
Cc1nc2ccc(NC(=O)c3cc4sc(N5CCOCC5)nc4s3)cc2o1.Cl [Compound 86] | – | – | 272.2 °C | +++ (+++ indicates <1 uM) | +++ (+++ indicates <1 uM)
O=C(Nc1ccc(F)nc1)c1cc2sc(N3CCC(CO)CC3)nc2s1 [Compound 143] | < 1 µM | < 1 µM | 240.8 °C | – | –
Cc1nc2cc(NC(=O)c3cc4sc(N5CCNCC5)nc4s3)ccc2o1 [Compound 140] | 1 to 20 µM (≈ 0.4 to 7.99 µg/mL) | 1 to 20 µM (≈ 0.4 to 7.99 µg/mL) | 235.3 °C | – | –
Cc1nc2cc(NC(=O)c3cc4sc(N5CCC(C(=O)N(C)C)CC5)nc4s3)ccc2o1 [Compound 138] | < 1 µM | < 1 µM | 284.2 °C | – | –
Cc1nc2cc(NC(=O)N3CCc4nc(N5CCOCC5)sc4C3)ccc2o1 [Compound 187] | > 20 µM | > 20 µM | 104 °C | – | –
O=C(Nc1ccc2ncoc2c1)c1cc2sc(N3CCOCC3)nc2s1 [Compound 101] | 1 to 20 µM (≈ 0.386 to 7.73 µg/mL) | < 1 µM | 281.8 °C | – | –
O=C(Nc1ccn(-c2ccccc2)n1)c1cc2sc(N3CCOCC3)nc2s1 [Compound 165] | > 20 µM | 1 to 20 µM (≈ 0.412 to 8.23 µg/mL) | 257.8 °C | – | –
COC(=O)C1CCC(NC(=O)c2cc3nc(N4CCCCC4)sc3s2)CC1 (stereo not drawn) [Compound 30] | > 20 µM | – | 191 °C | – | –
CN(C)C(=O)C1CCN(c2nc3sc(C(=O)Nc4ccc5oc(-c6ccc(F)cc6)nc5c4)cc3s2)CC1 [Compound 171] | > 20 µM | < 1 µM | 323 °C | – | –
CCc1ccc(NC(=O)c2cc3sc(N4CCCCC4)nc3s2)cc1 [Compound 38] | 1 to 20 µM (≈ 0.372 to 7.43 µg/mL) | < 1 µM | 198 °C | – | –
COc1ccc(NC(=O)c2cc3sc(NC4CCCC4)nc3s2)cc1 [Compound 90] | < 1 µM | < 1 µM | 239.3 °C | – | –
O=C(Nc1ccc2ncccc2c1)c1cc2sc(N3CCCCC3)nc2s1 [Compound 40] | 1 to 20 µM (≈ 0.395 to 7.89 µg/mL) | < 1 µM | 279.5 °C | – | –
Cc1nc2cc(NC(=O)N3CCc4sc(N5CCOCC5)cc4C3)ccc2o1 [Compound 191] | > 20 µM | > 20 µM | 171.7 °C | – | –
COc1ccc(CNc2nc3sc(C(=O)Nc4ccc(OC)cc4)cc3s2)cc1 [Compound 63] | > 20 µM | < 1 µM | 243 °C | – | –
COc1ccc(NC(=O)c2cc3sc(N4CCN5CCCC5C4)nc3s2)cc1 (stereo not drawn) [Compound 100] | 1 to 20 µM (≈ 0.415 to 8.29 µg/mL) | < 1 µM | 195 °C | – | –
Cc1nc2ccc(NC(=O)c3cc4nc(N5CCCCC5)sc4s3)cc2o1 [Compound 34] | > 20 µM | – | 213 °C | – | –
COC(=O)c1ccc(N(C)C(=O)c2cc3nc(N4CCCCC4)sc3s2)cc1 [Compound 31] | > 20 µM | – | 178.5 °C | – | –
O=C(Nc1ccc(C(F)(F)F)cc1)c1cc2nc(N3CCCCC3)sc2s1 [Compound 33] | > 20 µM | – | 228.6 °C | – | –

SMILES | MIC50 [1] | MIC50 [2] | melting point | QUM (MIC50, uM) [1] | QIM (MIC50, uM) [2]
Cc1nc2cc(NC(=O)c3cc4sc(N5CCC(NC(=O)OC(C)(C)C)CC5)nc4s3)ccc2o1 [Compound 233] | 1 to 20 µM (≈ 0.514 to 10.3 µg/mL) | < 1 µM | – | – | –
Cc1nc2cc(NC(=O)c3cc4sc(N5CCOC(CO)C5)nc4s3)ccc2o1 (stereo not drawn) [Compound 152] | 1 to 20 µM (≈ 0.431 to 8.61 µg/mL) | 1 to 20 µM (≈ 0.431 to 8.61 µg/mL) | – | – | –
O=C(Nc1ccc(F)cc1)c1cc2sc(NCC(O)C(F)(F)F)nc2s1 (stereo not drawn) [Compound 330] | 1 to 20 µM (≈ 0.405 to 8.11 µg/mL) | < 1 µM | – | – | –
COCCN(C)c1nc2sc(C(=O)Nc3ccc(-c4ccc(C)cn4)cc3)cc2s1 [Compound 262] | < 1 µM | < 1 µM | – | – | –
COCCN(C)c1nc2sc(C(=O)Nc3ccc(-c4ccc(OC)nc4)cc3)cc2s1 [Compound 265] | < 1 µM | < 1 µM | – | – | –
COc1ccc(CN2CCN(c3nc4sc(C(=O)Nc5ccc(OC)cc5)cc4s3)CC2)cc1 [Compound 91] | > 20 µM | < 1 µM | – | – | –
Cn1ccc(-c2ccc(NC(=O)c3cc4sc(NCCN5CCOCC5)nc4s3)cc2)n1 [Compound 319] | 1 to 20 µM (≈ 0.469 to 9.37 µg/mL) | < 1 µM | – | – | –
CN(C)c1nc2sc(C(=O)Nc3ccc4oc(-c5ccc(F)cc5)nc4c3)cc2s1 [Compound 210] | > 20 µM | > 20 µM | – | – | –
O=C(Nc1ccc(OCc2ccccc2)cc1)c1cc2sc(N3CCCCC3)nc2s1 [Compound 44] | > 20 µM | < 1 µM | – | – | –
Cc1nc2cc(NC(=O)c3cc4sc(N5CCC(Nc6ccc(F)cc6)CC5)nc4s3)ccc2o1 [Compound 320] | 1 to 20 µM (≈ 0.508 to 10.2 µg/mL) | < 1 µM | – | – | –
COCCN(C)c1nc2sc(C(=O)Nc3ccc4oc(C)nc4c3)cc2s1 [Compound 202] | < 1 µM | < 1 µM | – | – | –
CN1CCC(Nc2nc3sc(C(=O)Nc4ccc(F)cc4)cc3s2)CC1 [Compound 313] | > 20 µM | 1 to 20 µM (≈ 0.391 to 7.81 µg/mL) | – | – | –
COCCN(C)c1nc2sc(C(=O)Nc3ccc(-c4ccc(F)cc4)cn3)cc2s1 [Compound 273] | 1 to 20 µM (≈ 0.443 to 8.85 µg/mL) | < 1 µM | – | – | –
CN(C)C(=O)C1CCN(c2nc3sc(C(=O)Nc4ccc5oc(Cc6ccc(F)cc6)nc5c4)cc3s2)CC1 [Compound 219] | 1 to 20 µM (≈ 0.564 to 11.3 µg/mL) | < 1 µM | – | – | –
CN(C)C(=O)C1CCN(c2nc3sc(C(=O)Nc4ccc(-c5nn(C)cc5F)cc4)cc3s2)CC1 [Compound 228] | < 1 µM | < 1 µM | – | – | –
COc1ccc(-c2ccc(NC(=O)c3cc4sc(N5CCC(C(=O)N(C)C)CC5)nc4s3)cc2)cn1 [Compound 213] | < 1 µM | < 1 µM | – | – | –
CN(C)C(=O)C1CCN(c2nc3sc(C(=O)Nc4ccc(-c5ccn(C)n5)cc4)cc3s2)CC1 [Compound 203] | < 1 µM | < 1 µM | – | – | –
Cc1nc2cc(NC(=O)c3cc4sc(N(C)CCN5CCOCC5)nc4s3)ccc2o1 [Compound 225] | 1 to 20 µM (≈ 0.458 to 9.15 µg/mL) | < 1 µM | – | – | –
COC(CN(C)c1nc2sc(C(=O)Nc3ccc4oc(C)nc4c3)cc2s1)C(F)(F)F (stereo not drawn) [Compound 263] | > 20 µM | > 20 µM | – | – | –
O=C(Nc1ccc(F)cc1)c1cc2sc(OC3CCCCC3)nc2s1 [Compound 334] | 1 to 20 µM (≈ 0.376 to 7.53 µg/mL) | < 1 µM | – | – | –
CN(C)C(=O)[C@@H]1CCN(c2nc3sc(C(=O)Nc4ccc(F)cc4)cc3s2)C1 [Compound 309] | 1 to 20 µM (≈ 0.419 to 8.37 µg/mL) | < 1 µM | – | – | –

SMILES | MIC50 [1] | MIC50 [2] | melting point | QUM (MIC50, uM) [1] | QIM (MIC50, uM) [2]
COc1ccc(NC(=O)c2cc3sc(N4CCC(CO)CC4)nc3s2)cc1 [Compound 120] | < 1 µM | < 1 µM | – | – | –
Cc1nc2cc(NC(=O)c3cc4sc(N5CCC(NC(=O)CC(C)(C)C)CC5)nc4s3)ccc2o1 [Compound 305] | > 20 µM | < 1 µM | – | – | –
COc1ccc(NC(=O)c2cc3nc(N4CCCCC4)sc3s2)cc1 [Compound 2] | > 20 µM | > 20 µM | – | – | –
C#CCOc1ccc(-c2ccc(NC(=O)c3cc4sc(N(C)CCOC)nc4s3)cc2)cc1 [Compound 358] | < 1 µM | < 1 µM | – | – | –
COCCNc1nc2sc(C(=O)Nc3ccc4oc(C)nc4c3)cc2s1 [Compound 266] | < 1 µM | < 1 µM | – | – | –
CN(C)C(=O)C1CCN(c2nc3sc(C(=O)Nc4ccc(-c5nn(C)cc5Cl)cc4)cc3s2)CC1 [Compound 276] | > 20 µM | < 1 µM | – | – | –
Cc1nc2cc(NC(=O)c3cc4sc(N5CCC(CC(=O)N(C)C)C5)nc4s3)ccc2o1 (stereo not drawn) [Compound 308] | < 1 µM | < 1 µM | – | – | –
CN(CCO)c1nc2sc(C(=O)Nc3ccc4oc(CCc5ccc(F)cc5)nc4c3)cc2s1 [Compound 252] | 1 to 20 µM (≈ 0.497 to 9.93 µg/mL) | < 1 µM | – | – | –
O=C(Nc1ccc(F)cc1)c1cc2sc(N3CCC(Oc4ccc(Cl)cc4)CC3)nc2s1 [Compound 235] | > 20 µM | < 1 µM | – | – | –
Cc1nc2cc(NC(=O)c3cc4sc(NC5CCOCC5)nc4s3)ccc2o1 [Compound 299] | < 1 µM | < 1 µM | – | – | –
Cc1ccc(-c2ccc(NC(=O)c3cc4sc(N5CCC(C(=O)N(C)C)CC5)nc4s3)cc2)cn1.Cl [Compound 208] | – | – | – | +++ (+++ indicates <1 uM) | +++ (+++ indicates <1 uM)
COc1ccc(NC(=O)c2cc3sc(N4CCC(O)C4)nc3s2)cc1 (stereo not drawn) [Compound 130] | 1 to 20 µM (≈ 0.375 to 7.51 µg/mL) | < 1 µM | – | – | –
COc1ccc(CN(CCO)c2nc3sc(C(=O)Nc4ccc5oc(C)nc5c4)cc3s2)cc1 [Compound 248] | 1 to 20 µM (≈ 0.495 to 9.89 µg/mL) | < 1 µM | – | – | –
Cc1nc2cc(NC(=O)c3cc4sc(N5CCC(Oc6ccc(Cl)cc6)CC5)nc4s3)ccc2o1 [Compound 207] | 1 to 20 µM (≈ 0.525 to 10.5 µg/mL) | < 1 µM | – | – | –
CN(CC(O)C(F)(F)F)c1nc2sc(C(=O)Nc3ccc(F)cc3)cc2s1 (stereo not drawn) [Compound 316] | 1 to 20 µM (≈ 0.419 to 8.39 µg/mL) | < 1 µM | – | – | –
CN(C)C(=O)C1CCN(c2nc3sc(C(=O)Nc4ccc(-c5ccc(F)cc5)nc4)cc3s2)CC1 [Compound 231] | < 1 µM | < 1 µM | – | – | –
CN(C)C(=O)C1CCN(c2nc3sc(C(=O)Nc4ccc(-c5ccc(F)nc5)cc4)cc3s2)CC1 [Compound 216] | < 1 µM | < 1 µM | – | – | –
O=C(Nc1ccc(F)cc1)c1cc2sc(NC3CCCNC3)nc2s1 (stereo not drawn) [Compound 310] | > 20 µM | > 20 µM | – | – | –
CCN(CCOC)c1nc2sc(C(=O)Nc3ccc4oc(C)nc4c3)cc2s1 [Compound 269] | > 20 µM | > 20 µM | – | – | –
O=C(Nc1ccc(F)cc1)c1cc2sc(N3CCC(COc4ccc(Cl)cc4)CC3)nc2s1 [Compound 245] | 1 to 20 µM (≈ 0.502 to 10 µg/mL) | < 1 µM | – | – | –

Source: US11279714B2, “Anti-infective compounds” (priority 2014, dated 2022)
